By IC90 is commonly meant the point of the concentration-response curve where the effect stands at 90%. By IC50 is commonly meant the concentration that gives 50% inhibition.

Results on 46 molecules are retold here after US10301294B2, “Compounds for the treatment of tuberculosis” (priority 2013, dated 2019).

Holding throughout (format): cell-based
Data set [1] relates to replicating M. tuberculosis H37Rv. The experiment in a line: microbe, parasite or virus in culture. Conditions: for IC90: Mycobacterium tuberculosis, H37RV, read-out: Against Replicating Mtb IC90.
Data set [2] has as its system carbon-starved M. tuberculosis H37Rv. The data set can be described thus: microbe, parasite or virus in culture. Conditions: for IC90: Mycobacterium tuberculosis, H37RV, read-out: Against carbon starving non-replicating Mtb IC90.
For data set [3] the test system is unchanged. The data set can be described thus: Non-replicating IC90 determination by luciferase (carbon-starved cells). Conditions: Mycobacterium tuberculosis, H37RV; non-replicating carbon-starved Mtb, luciferase; three independent experiments in triplicate; read-out: TB Growth Inhibition Activity, IC90 Non-replicating_luciferase.
In data set [4] the test system is replicating M. tuberculosis H37Rv. The experiment in a line: microbe, parasite or virus in culture. To be noted: Mycobacterium tuberculosis, H37RV, three independent experiments in triplicate, read-out: TB Growth Inhibition Activity, IC90 Replicating_logarithmic (converted).
A short description of data set [5]: Cytotoxicity against Hek 293. To be noted: human, HEK293 cells, 26.0 uM highest concentration measured.
Data set [6] can be described thus: Cytotoxicity against HepG2. To be noted: human, HepG2 cells, 26.0 uM highest concentration measured.
Data set [7] is described as follows: Cytotoxicity against HeLa. To be noted: human, HeLa cells, 26.0 uM highest concentration measured.

Where two headings read alike, the source gives them in different places.

On to `Fc1ccc(-c2nnc(SCc3ccccn3)o2)cc1` [drawing 269], for which the “Against Replicating Mtb, % @ 16” value in data set [1] ([…], at 16 uM) amounted to 98.5% @ 16. Further, the “Against carbon starving non-replicating Mtb, % @ 4” value in data set [2] worked out at 99% @ 4.
In the case of `c1ccc(-c2nnc(SCCC3OCCCO3)o2)cc1` [drawing 258], the IC90 in data set [2] is 10 µM.
For the molecule `Brc1cccc(-c2nnc(SCc3ccccn3)o2)c1` [drawing 271], the “Against Replicating Mtb, % @ 62” value in data set [1] ([…], at 62 uM) was found to be 96% @ 62. For the same molecule, the IC90 in data set [2] was less than 8 µM.
For `[O-][n+]1ccccc1CSc1nnc(-c2ccccc2)o1` [drawing 263], in data set [2], the “Against carbon starving non-replicating Mtb IC90 (uM)” value is “None”.
As to `[O-][S+](Cc1ccccc1)c1nnc(-c2ccccc2)o1` (stereo not drawn) [drawing 267], in data set [1] ([…], at 31 uM), the “Against Replicating Mtb, % @ 31” value came out at 100% @ 31. Further, in data set [2], the IC90 was 4 µM.
With `Fc1cccc(-c2nnc(SCc3ccccn3)o2)c1` [drawing 270], the IC90 in data set [1] is 31 µM; in data set [2], less than 8 µM.
Turning to `O=S(=O)(Cc1ccccc1)c1nnc(-c2ccccc2)o1` [drawing 268], the IC90 in data set [2] was 62 µM.
The same measure, in the same setting: under `[O-][S+](Cc1ccccn1)c1nnc(-c2ccc(Cl)cc2)o1` (stereo not drawn) [drawing 264] stands 10 µM; under `COCCSc1nnc(-c2ccccc2)o1` [drawing 260], 4 µM.
Same read-out and setting: the same measure for `c1ccc(-c2nnc(SC3CCCCC3)o2)cc1` [drawing 262]: 31 µM.
As to `c1ccc(Cn2cc(CSc3nnc(-c4ccccc4)o3)nn2)cc1`, the results for the 90% effect concentration (IC90) in data set [3] and in data set [4] were 4 µM and greater than 62 µM, respectively. Also, the concentration for half-maximal inhibition (IC50) in data set [5], in data set [6] and in data set [7] was greater than 26 µM in each case.
Turning to `FC(F)(F)Oc1ccccc1CSc1nnc(-c2ccccc2)o1`, the 90% effect concentration (IC90) in data set [3] was 4 µM; in data set [4], 500 µM. The half-inhibitory concentration (IC50) in data set [5], in data set [6] and in data set [7] was greater than 26 µM throughout.
With `COC(=O)CCCOc1ccc(CSc2nnc(-c3ccc(Cl)cc3)o2)nc1` [drawing 276], the IC90 in data set [1] came out at 31 µM. In addition, in data set [2], the “Against carbon starving non-replicating Mtb, % @ 8” value came to 99% @ 8.
Turning to `COCC[S+]([O-])c1nnc(-c2ccc(Cl)cc2)o1` (stereo not drawn) [drawing 265], the IC90 in data set [2] came to 10 µM.
Turning to `COc1ccccc1-c1nnc(SCc2ccccc2)o1`, the IC90 in data set [3] is 125 µM; in data set [4], 250 µM. Further, the IC50 in data set [5], in data set [6] and in data set [7] was greater than 26 µM in each case.
On to `Clc1ccc(-c2nnc(SCc3cn(Cc4ccccc4)nn3)o2)cc1` [drawing 273], for which the “Against Replicating Mtb, % @ 125” value in data set [1] ([…], at 125 uM) worked out at 98% @ 125. Also, the “Against carbon starving non-replicating Mtb, % @ 4” value in data set [2] turned out to be 99% @ 4.
For the molecule `Fc1ccc(Cn2cc(CSc3nnc(-c4ccc(F)cc4)o3)nn2)cc1`, the values for the IC90 in data set [3] and in data set [4] were 4 µM and greater than 62 µM, respectively. The IC50 in data set [5], in data set [6] and in data set [7] was greater than 26 µM throughout.
Turning to `Fc1ccc(-c2nnc(SCc3cn(Cc4ccccc4)nn3)o2)cc1`, the concentration for an effect of 90% (IC90) in data set [3] was 2 µM; in data set [4], greater than 62 µM. Also, the IC50 in data set [5], in data set [6] and in data set [7] was greater than 26 µM throughout.
For the molecule `c1ccc(-c2nnc(SCc3cccnc3)o2)cc1` [drawing 143], the IC90 is 8 µM in data set [3] and 125 µM in data set [4]. Besides, the IC50 in data set [5], in data set [6] and in data set [7] was greater than 26 µM in each case.
Consider `c1ccc(CSc2nnc(C3CCCC3)o2)cc1`, for which the IC90 is 0.5 µM in data set [3] and 125 µM in data set [4]. Besides, the half-inhibitory concentration (IC50) in data set [5], in data set [6] and in data set [7] was greater than 26 µM throughout.
For `Cc1ccc(-c2nnc(SCc3ccccc3)o2)cc1`, the IC90 is 4 µM in data set [3] and 125 µM in data set [4]. Further, the IC50 in data set [5], in data set [6] and in data set [7] was greater than 26 µM throughout.
With `Fc1cccc(-c2nnc(SCc3ccccc3)o2)c1`, the IC90 is 1 µM in data set [3] and 125 µM in data set [4]. The 50% inhibitory concentration (IC50) in data set [5], in data set [6] and in data set [7] was greater than 26 µM throughout.
Take `Clc1ccc(-c2nnc(SCc3ccccc3)o2)cc1`: the IC90 in data set [3] is 4 µM; in data set [4], 500 µM. Also, the IC50 in data set [5], in data set [6] and in data set [7] was greater than 26 µM each time.
Turning to `c1ccc(CSc2nnc(C3CCCCC3)o2)cc1`, the values for the IC90 in data set [3] and in data set [4] were 1 µM and 125 µM, respectively. The IC50 in data set [5], in data set [6] and in data set [7] was greater than 26 µM throughout.
In the case of `FC(F)(F)Oc1cccc(-c2nnc(SCc3ccccc3)o2)c1`, the IC90 in data set [3] was 31 µM; in data set [4], 250 µM. Further, the half-maximal inhibitory concentration (IC50) in data set [5], in data set [6] and in data set [7] was greater than 26 µM throughout.
Consider `c1ccc(CSc2nnc(Cc3ccccc3)o2)cc1`, for which the values for the 90% effect concentration (IC90) in data set [3] and in data set [4] were 4 µM and 500 µM, respectively. In addition, the concentration for half-maximal inhibition (IC50) in data set [5], in data set [6] and in data set [7] was greater than 26 µM in each case.
As to `Fc1ccc(Cn2cc(CSc3nnc(C4CCC4)o3)nn2)cc1`, the IC90 in data set [3] was 8 µM; in data set [4] it was greater than 62 µM. Besides, the IC50 in data set [5], in data set [6] and in data set [7] was greater than 26 µM in each case.
With `c1ccc(CSc2nnc(-c3ccccn3)o2)cc1`, the figures for the 90% effect concentration (IC90) in data set [3] and in data set [4] were 4 µM and 125 µM, respectively. For the same molecule, the IC50 in data set [5], in data set [6] and in data set [7] was greater than 26 µM in each case.
Regarding `COCCSc1nnc(-c2ccccc2)o1` [drawing 148], the IC90 in data set [3] was 3 µM; in data set [4], 125 µM. For the same molecule, the IC50 in data set [5], in data set [6] and in data set [7] was greater than 26 µM each time.
As to `CN(C)CCSc1nnc(-c2ccccc2)o1`, the 90% effect concentration (IC90) is 16 µM in data set [3] and 500 µM in data set [4]. The IC50 in data set [5], in data set [6] and in data set [7] was greater than 26 µM in each case.
As for `c1ccc(CSc2nnc(-c3ccccc3)s2)cc1`, the figures for the IC90 in data set [3] and in data set [4] were 8 µM and 62 µM, respectively. For the same molecule, the IC50 in data set [5], in data set [6] and in data set [7] was greater than 26 µM in each case.
Turning to `c1ccc(-c2nnc(SCc3ncco3)o2)cc1`, the IC90 was 16 µM in data set [3] and 31 µM in data set [4]. The concentration for half-maximal inhibition (IC50) in data set [5], in data set [6] and in data set [7] was greater than 26 µM in each case.
Regarding `c1ccc(CSc2nnc(-c3cscn3)o2)cc1`, the IC90 in data set [3] was 4 µM; in data set [4], 125 µM. Also, the IC50 in data set [5], in data set [6] and in data set [7] was greater than 26 µM each time.
Take `CC(C)c1nnc(SCc2ccccc2)o1`: the figures for the IC90 in data set [3] and in data set [4] were 2 µM and 125 µM, respectively. The IC50 in data set [5], in data set [6] and in data set [7] was greater than 26 µM throughout.
For `[N-]=[N+]=NCCOCCNC(=O)CCCOc1ccc(CSc2nnc(-c3ccc(Cl)cc3)o2)nc1` [drawing 277], the “Against carbon starving non-replicating Mtb, % @ 8” value in data set [2] is reported as 98% @ 8.
As for `c1ccc(CCc2nnc(SCc3ccccc3)o2)cc1`, the IC90 was 32 µM in data set [3] and 250 µM in data set [4]. In addition, the concentration for half-maximal inhibition (IC50) in data set [5], in data set [6] and in data set [7] was greater than 26 µM throughout.
As to `Fc1ccccc1-c1nnc(SCc2ccccc2)o1`, the IC90 in data set [3] was 2 µM; in data set [4], 125 µM. In addition, the half-inhibitory concentration (IC50) in data set [5], in data set [6] and in data set [7] was greater than 26 µM throughout.
For the molecule `[N-]=[N+]=NCCOCCNC(=O)CCCOc1ccc(C[S+]([O-])c2nnc(-c3ccc(Cl)cc3)o2)nc1` (stereo not drawn) [drawing 278], the “Against carbon starving non-replicating Mtb, % @ 8” value in data set [2] is reported as 97% @ 8.
Take `Clc1ccccc1CSc1nnc(-c2ccccc2)o1`: the results for the IC90 in data set [3] and in data set [4] were 2 µM and 250 µM, respectively. The IC50 in data set [5], in data set [6] and in data set [7] was greater than 26 µM each time.
Regarding `c1ccc(-c2nnc(SCc3ccncc3)o2)cc1` [drawing 144], the IC90 is 31 µM in data set [3] and 250 µM in data set [4]. The IC50 in data set [5], in data set [6] and in data set [7] was greater than 26 µM each time.
`Fc1ccc(-c2nnc(SCc3cn(-c4ccccc4)nn3)o2)cc1`: the figures for the IC90 in data set [3] and in data set [4] were 2 µM and greater than 62 µM, respectively. Moreover, the concentration for half-maximal inhibition (IC50) in data set [5], in data set [6] and in data set [7] was greater than 26 µM in each case.
`Brc1ccc(-c2nnc(SCc3ccccn3)o2)cc1` [drawing 266]: in data set [2], the IC90 was less than 8 µM.
For `c1ccc(-n2cc(CSc3nnc(C4CCCC4)o3)nn2)cc1`, the IC90 in data set [3] was 4 µM; in data set [4], 62 µM. Moreover, the IC50 in data set [5], in data set [6] and in data set [7] was greater than 26 µM each time.
Consider `FC1(F)CN(CCSc2nnc(-c3ccccc3)o2)C1`, for which the IC90 in data set [3] was 1 µM; in data set [4] it was 250 µM. Further, the IC50 in data set [5], in data set [6] and in data set [7] was greater than 26 µM each time.
In the case of `Fc1ccc(CSc2nnc(-c3ccccc3)o2)cc1` [drawing 259], the concentration for an effect of 90% (IC90) in data set [2] came to 62 µM.
With `CN(Cc1ccccc1)c1nnc(-c2ccccc2)o1`, the 90% effect concentration (IC90) in data set [3] is 0.5 µM; in data set [4], 250 µM. Also, the IC50 in data set [5], in data set [6] and in data set [7] was greater than 26 µM each time.
